Laboratory results reported in paper PMC4394048 (Molecular cancer therapeutics, 2015).

Tests used:
OATP1B3 [1] = biological target: T1, OATP1B3 (Homo sapiens, UniProt Q9NPD5)
MDR1 = MDR1 (Homo sapiens, UniProt P08183); conditions: MDCKII-MDR1 versus MDCKII-Co cells over time; 0.1 μM; p < 0.05
OATP1B1/MDR1 = conditions: MDCKII-OATP1B1/MDR1 versus MDCKII-OATP1B1 cells, p < 0.001
OATP1B3/MDR1 = conditions: MDCKII-OATP1B3/MDR1 versus MDCKII-OATP1B3 cells, p < 0.01
[2] = cited from earlier work
[3] = Mdr1a/1b−/− mice, intravenous administration; cited from earlier work
OATP1B3 [4] = biological target: T1, OATP1B3; test: in vitro
[5] = Docetaxel distribution in Slco1b2−/− and wild-type mice; conditions: for mean plasma clearance ± S.D.: dose/AUC
[6] = substrate: CC(=O)O[C@@]12CO[C@@H]1C[C@H](O)[C@@]1(C)C(=O)[C@H](O)C3=C(C)[C@@H](OC(=O)[C@H](O)[C@@H](NC(=O)OC(C)(C)C)c4ccccc4)C[C@@](O)([C@@H](OC(=O)c4ccccc4)[C@H]21)C3(C)C; test: cells, lysate or membranes named; conditions: other: HeLa cells; 0.1-100 μM; Michaelis-Menten fit; 37.0 °C

T1 sequence (Q9NPD5 whole entry): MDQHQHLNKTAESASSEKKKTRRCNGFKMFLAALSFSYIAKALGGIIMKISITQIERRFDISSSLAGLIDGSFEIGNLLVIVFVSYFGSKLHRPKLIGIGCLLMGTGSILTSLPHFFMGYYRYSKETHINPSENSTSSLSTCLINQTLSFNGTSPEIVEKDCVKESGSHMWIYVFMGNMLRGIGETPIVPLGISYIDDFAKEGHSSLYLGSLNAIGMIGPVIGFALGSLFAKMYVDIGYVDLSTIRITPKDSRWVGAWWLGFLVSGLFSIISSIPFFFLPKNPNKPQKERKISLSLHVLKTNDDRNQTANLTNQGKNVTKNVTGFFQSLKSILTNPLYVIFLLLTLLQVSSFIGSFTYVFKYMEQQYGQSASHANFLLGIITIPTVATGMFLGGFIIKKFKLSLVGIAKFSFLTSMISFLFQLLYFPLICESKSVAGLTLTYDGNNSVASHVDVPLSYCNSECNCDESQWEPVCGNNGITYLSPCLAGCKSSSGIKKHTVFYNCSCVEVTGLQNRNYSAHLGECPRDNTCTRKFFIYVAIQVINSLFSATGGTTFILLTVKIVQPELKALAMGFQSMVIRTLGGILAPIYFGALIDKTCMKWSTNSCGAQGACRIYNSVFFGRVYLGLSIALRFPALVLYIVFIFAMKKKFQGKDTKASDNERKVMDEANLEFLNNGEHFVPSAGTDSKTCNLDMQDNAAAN
Chain of MDR1 (P08183 whole entry): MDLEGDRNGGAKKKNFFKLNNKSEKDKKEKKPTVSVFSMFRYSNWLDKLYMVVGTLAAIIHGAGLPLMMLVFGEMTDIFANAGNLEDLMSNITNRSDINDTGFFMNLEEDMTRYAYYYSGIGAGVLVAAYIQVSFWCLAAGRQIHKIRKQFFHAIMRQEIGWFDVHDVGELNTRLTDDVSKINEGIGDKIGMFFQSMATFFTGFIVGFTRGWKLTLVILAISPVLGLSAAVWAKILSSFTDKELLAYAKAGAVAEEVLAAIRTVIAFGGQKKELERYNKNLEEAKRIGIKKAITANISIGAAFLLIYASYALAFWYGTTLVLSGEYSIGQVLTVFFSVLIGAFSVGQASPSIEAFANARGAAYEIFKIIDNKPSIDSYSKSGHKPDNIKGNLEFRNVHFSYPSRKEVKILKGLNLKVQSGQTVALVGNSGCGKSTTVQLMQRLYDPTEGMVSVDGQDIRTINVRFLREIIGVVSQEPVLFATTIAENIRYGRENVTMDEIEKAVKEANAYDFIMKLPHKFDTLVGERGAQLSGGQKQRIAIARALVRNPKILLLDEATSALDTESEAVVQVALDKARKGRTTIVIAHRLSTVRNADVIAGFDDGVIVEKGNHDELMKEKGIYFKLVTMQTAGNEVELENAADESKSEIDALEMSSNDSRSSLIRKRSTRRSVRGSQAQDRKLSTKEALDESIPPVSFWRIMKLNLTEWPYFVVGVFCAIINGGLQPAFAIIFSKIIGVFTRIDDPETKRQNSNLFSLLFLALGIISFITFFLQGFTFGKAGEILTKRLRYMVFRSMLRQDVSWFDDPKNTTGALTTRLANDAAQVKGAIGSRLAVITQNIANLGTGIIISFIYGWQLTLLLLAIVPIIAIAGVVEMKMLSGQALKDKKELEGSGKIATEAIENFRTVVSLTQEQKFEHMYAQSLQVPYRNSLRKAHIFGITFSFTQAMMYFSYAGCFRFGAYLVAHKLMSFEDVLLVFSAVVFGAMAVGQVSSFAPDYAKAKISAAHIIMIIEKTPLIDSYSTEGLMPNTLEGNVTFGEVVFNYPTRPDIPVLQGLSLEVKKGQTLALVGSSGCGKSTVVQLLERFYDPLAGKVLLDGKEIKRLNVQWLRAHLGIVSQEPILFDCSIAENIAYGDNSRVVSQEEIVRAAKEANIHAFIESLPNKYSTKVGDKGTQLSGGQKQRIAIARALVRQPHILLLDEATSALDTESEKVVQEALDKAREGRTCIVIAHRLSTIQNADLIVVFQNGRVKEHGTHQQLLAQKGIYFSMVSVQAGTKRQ

For `CC(=O)O[C@@]12CO[C@@H]1C[C@H](O)[C@@]1(C)C(=O)[C@H](O)C3=C(C)[C@@H](OC(=O)[C@H](O)[C@@H](NC(=O)OC(C)(C)C)c4ccccc4)C[C@@](O)([C@@H](OC(=O)c4ccccc4)[C@H]21)C3(C)C` [docetaxel], the Vmax (OATP1B3 [1]) was 480 ± 90 pmol/mg/min, the “apical docetaxel accumulation (basal-to-apical)” value (MDR1) was “significantly higher” and the “docetaxel transported into the apical compartment” value (OATP1B1/MDR1; 0.5h up to 3h, 0.1 μM) was “significantly higher”. For the same molecule, the intracellular docetaxel (OATP1B1/MDR1; all time points) was “significantly lower”, the “docetaxel transported into the apical compartment” value (OATP1B3/MDR1; 0.5h up to 3h, 0.1 μM) was “significantly higher” and the intracellular docetaxel (OATP1B3/MDR1; all time points) was “significantly lower”. The “increase in docetaxel clearance” value ([2]; CYP3A4*1B and CYP3A5*1A alleles (CYP3A4/5*2 haplotype)) was 64%, the “docetaxel excreted in bile” value ([2]; humans) was ~ 75% and the “docetaxel excreted in urine” value ([2]; humans) was ~ 5%. For the same molecule, the “difference in drug clearance amongst patients” value ([2]; patients receiving the same treatment regimens) was “up to 10 fold”, the “increase in odds of developing grade 4 neutropenia” value ([2]; with a 50% decrease in docetaxel clearance) was “more than 4 fold” and the “AUC of docetaxel in knockout versus wild-type mice” value [3] was “similar”. The Km (OATP1B3 [4]) was 14 ± 6.5 µM, the “plasma clearance in Slco1b2−/− mice, lower than wild-type mice” value ([5]; 1 mg/kg intravenous, p < 0.05) was 83% and the “mean plasma clearance ± S.D.” value ([5]; Slco1b2−/− mice, 1 mg/kg intravenous) was 1.22 ± 0.583 mL/min/kg. For the same molecule, the docetaxel liver concentrations ([5]; Slco1b2−/− versus wild-type mice, 30 min after 1 mg/kg intravenous) was “no significant difference” and the “mean plasma clearance ± S.D.” value ([5]; wild-type mice, 1 mg/kg intravenous) was 473 ± 124 mL/h.

B1: Oatp1b2 (Rattus norvegicus) (protein)
chain: MDHTQQSRKAAEAQPSRSKQTRFCDGFKLFLAALSFSYICKALGGVVMKSSITQIERRFDIPSSISGLIDGGFEIGNLLVIVFVSYFGSKLHRPKLIGIGCFIMGIGSILTALPHFFMGYYKYAKENDIGSLGNSTLTCFINQMTSPTGPSPEIVEKGCEKGLKSHMWIYVLMGNMLRGIGETPIVPLGISYLDDFAKEGHTSMHLGTLHTIAMIGPILGFIMSSVFAKIYVDVGYVDLNSVRITPNDARWVGAWWLSFIVNGLLCITSSIPFFFLPKIPKRSQEERKNSVSLHAPKTDEEKKHMTNLTKQEEQDPSNMTGFLRSLRSILTNEIYVIFLILTLLQVSGFIGSFTYLFKFIEQQFGRTASQANFLLGIITIPTMATAMFLGGYIVKKFKLTSVGIAKFVFFTSSVAYAFQFLYFPLLCENKPFAGLTLTYDGMNPVDSHIDVPLSYCNSDCSCDKNQWEPICGENGVTYISPCLAGCKSFRGDKKPNNTEFYDCSCISNSGNNSAHLGECPRYKCKTNYYFYIILQVTVSFFTAMGSPSLILILMKSVQPELKSLAMGFHSLIIRALGGILAPIYYGAFIDRTCIKWSVTSCGKRGACRLYNSRLFGFSYLGLNLALKTPPLFLYVVLIYFTKRKYKRNDNKTLENGRQFTDEGNPDSVNKNGYYCVPYDEQSNETPL
With B1 the Km [6] was 20.8 ± 7.4 µM and the Vmax [6] was 1548 ± 186 pmol/mg/min.
